Test results: patent US8710097B2, “Flavonoid dimers and methods of making and using such” (The Hong Kong Polytechnic University, priority 2006, dated 2014)
In brackets after ≈: the same amount, converted by molar mass. Like-named read-outs stand apart in the source and are kept apart here.

How the values were obtained:
P388/ADR cells [1] = test: Doxorubicin accumulation; assay type: cell-based, murine; conditions: monomer 10b at double concentration of the dimers, FIG. 11A
Method: For P388 (both parent and MDR subtype) cells, 1 ml (10^5 cells) confluent cells were aliquot into Eppendorf tube and pre-incubated with flavone dimers for 30 min at 37° C. Doxorubicin (final concentration of 10 μM) was then added and incubated for 2 h at 37° C. at a final concentration of 10 μM. The cell pellets were washed 3 times with cold PBS by using an Eppendorf micro-centrifuge and lysed with 0.3N HCL in 50% ethanol, and sonicated for 30s. After centrifugation at 10000 rpm/min for 3 min, the supernatant was saved. The fluorescence of doxorubicin was measured using a spectrofluorometer (λexcite=470 nm, λemit=585 nm).

MDA435/LCC6 MDR cells = test: cells; conditions: for IC50: Homo sapiens; for RF (relative fold): LCC6 MDR, drug alone (reference)
Method: (§1) MDA435/LCC6 and P388 (both parent and MDR subtype) were maintained in DMEM and RPMI 1640 culture medium supplemented with 10% FBS, respectively. RPMI 1640 media also contained 100 units/ml penicillin and 100 μg/ml streptomycin. Cells were cultured at 37° C. in a humidified atmosphere with 5% CO2. A solution of 0.05% trypsin-EDTA was used to detach the MDA435/LCC6 (both wild type and MDR subtype) cells.
(§2) Cell proliferation assay. MDA435/LCC6 and P388 (both parent and MDR subtype) cells were seeded at 2000 and 5000 cells per well, respectively, in 96-well plates. Varying concentrations of anticancer drugs (Doxorubicin, Daunorubicin, Vincristine, Vinblastine, taxol, Mitoxantrone) with or without the flavonoid dimers were added in a final volume of 200 μl and cells were grown for 4 and 3 days for MDA435/LCC6 and P388 (both parent and MDR subtype) cells, respectively. For MDA435/LCC6 (both parent and MDR subtype), the corresponding drugs were added after cell attachment (24 hr incubation). To measure cell proliferation, the cell Titer 960 Aqueous Assay (Promega) was used according to the manufacturer's instructions. Briefly, MTS (2 mg/ml) and PMS (0.92 mg/ml) were mixed in a ratio of 20:1. 30 μl MTS/PMS mixture was added into each well and incubated for 2 hours at 37° C. Optical absorbance at 490 nm was then recorded using an ELISA microtiter plate reader (Bio-Rad). Each experiment was done at least in triplicate and repeated twice. Cytotoxicity of the anticancer drugs was expressed as the fraction of the cells survived relative to the untreated DMSO (0.05%) solvent controls.
MDA435/LCC6 is an estrogen-independent human breast cancer cell line. Its MDR subtype (MDA435/LCC6 MDR) was generated by transducing a retroviral vector directing the constitutive expression of the human MDR1 cDNA, producing a cell line with a classical MDR1 resistance pattern (MDA435/LCC6 and MDA435/LCC6MDR1: ascites models of human breast cancer. Br J Cancer 1996, 73, 154-161). The ability of the apigenin dimers of this invention to reverse taxol resistance in MDA435/LCC6 MDR cells were tested. […] Apigenin monomers 10a and 10b at 10 μM were used as the negative controls.

[2] = tested on: pentamidine-resistant L. enriettii LePentR50 promastigotes; test: microbe, parasite or virus in culture; conditions: Leishmania enriettii, 72 h, read-out: IC50(μM) of synthetic flavonoid, LePentR50, cytotoxicity of compound alone; 72 hrs
Method: (§3) Cell lines and Cell Culture. Promastigotes of Leishmania enriettii (LePentR50, Le wild type, LeMDR1 −/− and LeMDR1-overexpressed LeV160 mutants) and Leishmania donovani (LdAG83, Ld2001 and Ld39) were employed in this study. The former is a natural infective strain of guinea pig and the latter is a clinical strain, which may cause visceral leishmaniasis in human. Both strains were cultured in Schneider's Drosophila Medium (Invitrogen), pH 6.9 supplemented with 10% (v/v) heat inactivated fetal calf serum (Hyclone) with 4 mM glutamine (Sigma) and 25 μg/mL gentamicin solution (Invitrogen), at 27° C. for 4 days (Cloning and functional analysis of an extrachromosomally amplified multidrug resistance-like gene in Leishmania enriettii. Mol. Biochem. Parasitol 1993, 60, 195-208).
Promastigotes of LeV160 were culture in the presence of 160 μg/mL vinblastine. No pentamidine and vinblastine (Sigma) was added to the Le wild type and LeMDR1 −/− mutant.
(§4) The viability of promastigotes was determined by the Cell Titer 96® Aqueous Assay (Promega) that employs a tetrazolium compound (MTS) and electron coupling reagent, phenazine methosulfate (PMS). Promastigotes were seeded into 96-well flat bottom microtiter plate at 1×10^5 cells per well in a final volume of 100 μL medium. To determine the cytotoxic effects of flavonoid dimers to the parasites, various concentrations of flavonoid dimers were added to the promastigotes. To determine the reversal effects of flavonoid dimers with different spacer lengths, various concentrations of antileishmanial drugs, one of pentamidine or SSG, vinblastine and puromycin was added to the wells with or without flavonoid dimers. The parasites were incubated at 27° C. for 72 hrs. Each concentration of antileishmanials with or without the flavonoid dimers was tested in triplicates in each experiment. A 2 mg/mL MTS and 0.92 mg/mL PMS were mixed at a ratio of 20:1 (MTS: PMS). After 72-hr incubation, 10 μL of MTS:PMS mixture was added into each well of microtiter plate. The plate was then incubated at 27° C. for 4 hrs for color development. After 4 hrs of incubation, the OD values were determined at 490 nm using automatic microtiter plate reader (Bio-Rad).

[3] = tested on: wild type L. donovani LdAG83 promastigotes; test: Leishmania cell viability (MTS) assay; assay type: cell-based, Leishmania donovani; conditions: Leishmania donovani, 72 h, read-out: IC50(μM) of synthetic flavonoid, LdAG83
Method: as §3, with “195-208). […]” for “195-208).”
as §4

[4] = tested on: LeMDR1 knockout (LeMDR1 −/−) L. enriettii; test: Leishmania cell viability (MTS) assay; assay type: cell-based, Leishmania enriettii; conditions: LeMDR1 −/−
Source text: (§5) Cell lines and Cell Culture.

[5] = tested on: SSG-resistant L. donovani Ld39 promastigotes; test: microbe, parasite or virus in culture; assay type: cell-based, Leishmania donovani; conditions: for IC50: Leishmania donovani, 72 h, read-out: IC50(μM) of synthetic flavonoid, Ld39
Method: as §3, with “195-208). […]” for “195-208).”
as §4

MDA435/LCC6 cells = test: Cell proliferation (MTS) assay, parental sensitive cells; assay type: cell-based; conditions: Homo sapiens, read-out: IC50 (nM) of anticancer drug alone
Source text: (§6) Cell proliferation assay.

P388/ADR cells [6] = test: cells; conditions: P388/ADR; for IC50: Mus musculus; for RF (relative fold): drug alone (reference)
Method: as §1, §2

P388 cells = test: Cell proliferation (MTS) assay, parental sensitive cells; assay type: cell-based, murine; conditions: Mus musculus
Source text: as §6

[7] = tested on: LeMDR1 overexpressed L. enriettii (LeV160); test: Leishmania cell viability (MTS) assay; assay type: cell-based, Leishmania enriettii; conditions: Leishmania enriettii
Source text: as §5

[8] = MDA435/LCC6 MDR, 5 μM dimer, FIG. 5
[9] = 96 h, read-out: IC50 (nM) of anticancer drug alone, LCC6 MDR, drug alone, no modulator
[10] = read-out: IC50 (nM) of anticancer drug alone
[11] = read-out: IC50 of anticancer drug alone
[12] = P388, drug alone, read-out: IC50 (nM) of anticancer drug alone

| IC50 (P388/ADR cells [6]; [10]) | SMILES | IC50 (MDA435/LCC6 MDR cells; [9]) | RF (relative fold) (MDA435/LCC6 MDR cells) | RF (relative fold) (P388/ADR cells [6]) | IC50 (MDA435/LCC6 cells; LCC6, drug alone) | IC50 (P388 cells; [12]) | also measured |
| --- | --- | --- | --- | --- | --- | --- | --- |
| – | O=c1cc(-c2ccc(OCCOCCOc3ccc(-c4cc(=O)c5c(O)cc(O)cc5o4)cc3)cc2)oc2cc(O)cc(O)c12 [Compound 9b, 1,7-Bis[4′-((5,7-dihydroxy)-4H-chromen-4-on-2-yl)phenyl]-1,4,7-trioxaheptane] | – | – | – | – | – | activity on doxorubicin accumulation (P388/ADR cells [1]): comparable activity to 9d; IC60 of doxorubicin with modulator (MDA435/LCC6 MDR cells; [8]): 1300 nM; reduction of IC60 of doxorubicin, RF (MDA435/LCC6 MDR cells; [8]): ~3.1 RF; IC50 [2]: > 200 µM; IC50 [3]: > 200 µM; pentamidine sensitization [4]: 2.0 fold; SSG resistance modulating activity ([5]; Ld39, dimers at 6 μM, FIG. 14B): did not show substantial SSG resistance modulating activity; IC50 [5]: > 200 µM |
| – | O=c1cc(-c2ccc(OCCOCCOCCOCCOCCOCCOCCOCCOc3ccc(-c4cc(=O)c5c(O)cc(O)cc5o4)cc3)cc2)oc2cc(O)cc(O)c12 [Compound 9h, 1,25-Bis[4′-((5,7-dihydroxy)-4H-chromen-4-on-2-yl)phenyl]-1,4,7,10,13,16,19,22,25-nonaoxapentacosane] | – | – | – | – | – | doxorubicin sensitization (MDA435/LCC6 MDR cells; MDA435/LCC6 MDR, dimers): very little or no doxorubicin sensitization; reversing effect on taxol resistance (MDA435/LCC6 MDR cells; MDA435/LCC6 MDR, dimers at 5 μM): little or no reversing effect; IC50 [3]: 12 ± 0.2 µM; pentamidine sensitization [4]: 2.3 fold; IC50 [5]: 14 ± 0.1 µM |
| 1740 nM | COc1cccc2c1C(=O)c1c(O)c3c(c(O)c1C2=O)C[C@@](O)(C(=O)CO)C[C@@H]3O[C@H]1C[C@H](N)[C@H](O)[C@H](C)O1 [Doxorubicin] | 4690 nM | 1 | 1 | 300 nM | 22 nM | IC60 of doxorubicin alone (MDA435/LCC6 MDR cells; MDA435/LCC6 MDR, no modulator, FIG. 5): 4700 nM; IC50 (P388/ADR cells [6]; [11]): 1500 nM |
| 1640 nM | CC(=O)O[C@H]1C(=O)[C@@]2(C)[C@H]([C@H](OC(=O)c3ccccc3)[C@]3(O)C[C@H](OC(=O)[C@H](O)[C@@H](NC(=O)c4ccccc4)c4ccccc4)C(C)=C1C3(C)C)[C@]1(OC(C)=O)CO[C@@H]1C[C@@H]2O [Taxol, paclitaxel] | 115 nM | 1 | 1 | 2.9 nM | 22 nM | IC50 (MDA435/LCC6 MDR cells; read-out: Mean IC50 of taxol (nM), LCC6MDR, no analog added (control)): 128 nM |
| – | CC[C@]1(O)C[C@@H]2CN(CCc3c([nH]c4ccccc34)[C@@](C(=O)OC)(c3cc4c(cc3OC)N(C)[C@H]3[C@@](O)(C(=O)OC)[C@H](OC(C)=O)[C@]5(CC)C=CCN6CC[C@]43[C@@H]65)C2)C1 [Vinblastine] | 4.8 nM | 1 | 1 | 0.34 nM | 4.1 nM | IC50 (P388/ADR cells [6]; 72 h, read-out: IC50 (nM) of anticancer drug alone): 95 nM; IC50 ([7]; read-out: IC50 of vinblastine (μg/ml), no modulator): 167 ± 3.6 µg/mL (≈ 206 µM) |
| 299 nM | CC[C@]1(O)C[C@H]2CN(CCc3c([nH]c4ccccc34)[C@@](C(=O)OC)(c3cc4c(cc3OC)N(C=O)[C@H]3[C@@](O)(C(=O)OC)[C@H](OC(C)=O)[C@]5(CC)C=CCN6CC[C@]43[C@@H]65)C2)C1 [Vincristine] | 26 nM | 1 | 1 | 0.29 nM | 2.2 nM | – |
| – | COc1ccc(C[C@H](N)C(=O)N[C@H]2[C@@H](O)[C@H](n3cnc4c(N(C)C)ncnc43)O[C@@H]2CO)cc1 [puromycin] | – | – | – | – | – | IC50 ([7]; read-out: IC50 of puromycin (μg/ml), no modulator): 16 ± 1 µg/mL (≈ 33.9 µM) |

| SMILES | IC50 (P388/ADR cells [6]; [10]) | IC50 (MDA435/LCC6 MDR cells; [9]) | RF (relative fold) (MDA435/LCC6 MDR cells) | RF (relative fold) (P388/ADR cells [6]) | IC50 (MDA435/LCC6 cells; LCC6, drug alone) | IC50 (P388 cells; [12]) | also measured |
| --- | --- | --- | --- | --- | --- | --- | --- |
| COc1cccc2c1C(=O)c1c(O)c3c(c(O)c1C2=O)C[C@@](O)(C(C)=O)C[C@@H]3O[C@H]1C[C@H](N)[C@H](O)[C@H](C)O1 [Daunorubicin] | 2110 nM | 977 nM | 1 | 1 | – | – | IC50 (MDA435/LCC6 cells): 79 nM; IC50 (P388/ADR cells [6]; [11]): 2100 nM; IC50 (P388 cells; P388, read-out: IC50 (nM) of anticancer drug alone): 25 nM |
| O=C1c2c(O)ccc(O)c2C(=O)c2c(NCCNCCO)ccc(NCCNCCO)c21 [Mitoxantrone] | 395 nM | 1440 nM | 1 | 1 | 0.35 nM | 4.3 nM | – |
